In patent publication US10647684B2, “2-aminopyrimidine derivatives for the treatment of viral infections” (Janssen Sciences Ireland Unlimited Company, priority 2013, dated 2020):

Columns and labels:
Format in all cases: cell-based
[1] = tested on: interferon-stimulated responsive elements (ISRE); assay: Activation of ISRE promoter elements by conditioned media from PBMC (HEK-ISREluc); conditions: compound concentration applied to PBMCs overnight; supernatant on HEK-ISREluc cells 24 hours
Description: The potential of compounds to induce IFN-I was also evaluated by measuring the activation of interferon-stimulated responsive elements (ISRE) by conditioned media from PBMC. The ISRE element of sequence GAAACTGAAACT (SEQ ID NO: 1) is highly responsive to the STAT1-STAT2-IRF9 transcription factor, activated upon binding of IFN-I to their receptor IFNAR (Clontech, PT3372-5W). The plasmid pISRE-Luc from Clontech (ref. 631913) contains 5 copies of this ISRE element, followed by the firefly luciferase ORF. A HEK293 cell line stably transfected with pISRE-Luc (HEK-ISREluc) was established to profile the conditioned PBMC cell culture media.
Briefly, PBMCs were prepared from buffy coats of at least two donors using a standard Ficoll centrifugation protocol. Isolated PBMCs were resuspended in RPMI medium supplemented with 10% human AB serum and 2×10^5 cells/well were dispensed into 384-well plates containing compounds (70 μL total volume). After overnight incubation, 10 μL of supernatant was transferred to 384-well plates containing 5×10^3 HEK-ISREluc cells/well in 30 μL (plated the day before). Following 24 hours of incubation, activation of the ISRE elements was measured by assaying luciferase activity using 40 μL/well Steady Lite Plus substrate (Perkin Elmer) and measured with ViewLux ultraHTS microplate imager (Perkin Elmer). […]

human TLR8 = target: T1, human TLR8 (Homo sapiens, UniProt Q9NR97); assay: TLR8 cellular reporter assay (HEK293, NFκB-luc); conditions: lowest effective concentration; HEK293 transiently transfected with TLR8 and NFκB-luc; 6 hours incubation
T1 construct: expressed in transfected cells; host or cells: HEK293
T1 sequence (Q9NR97 27-1041): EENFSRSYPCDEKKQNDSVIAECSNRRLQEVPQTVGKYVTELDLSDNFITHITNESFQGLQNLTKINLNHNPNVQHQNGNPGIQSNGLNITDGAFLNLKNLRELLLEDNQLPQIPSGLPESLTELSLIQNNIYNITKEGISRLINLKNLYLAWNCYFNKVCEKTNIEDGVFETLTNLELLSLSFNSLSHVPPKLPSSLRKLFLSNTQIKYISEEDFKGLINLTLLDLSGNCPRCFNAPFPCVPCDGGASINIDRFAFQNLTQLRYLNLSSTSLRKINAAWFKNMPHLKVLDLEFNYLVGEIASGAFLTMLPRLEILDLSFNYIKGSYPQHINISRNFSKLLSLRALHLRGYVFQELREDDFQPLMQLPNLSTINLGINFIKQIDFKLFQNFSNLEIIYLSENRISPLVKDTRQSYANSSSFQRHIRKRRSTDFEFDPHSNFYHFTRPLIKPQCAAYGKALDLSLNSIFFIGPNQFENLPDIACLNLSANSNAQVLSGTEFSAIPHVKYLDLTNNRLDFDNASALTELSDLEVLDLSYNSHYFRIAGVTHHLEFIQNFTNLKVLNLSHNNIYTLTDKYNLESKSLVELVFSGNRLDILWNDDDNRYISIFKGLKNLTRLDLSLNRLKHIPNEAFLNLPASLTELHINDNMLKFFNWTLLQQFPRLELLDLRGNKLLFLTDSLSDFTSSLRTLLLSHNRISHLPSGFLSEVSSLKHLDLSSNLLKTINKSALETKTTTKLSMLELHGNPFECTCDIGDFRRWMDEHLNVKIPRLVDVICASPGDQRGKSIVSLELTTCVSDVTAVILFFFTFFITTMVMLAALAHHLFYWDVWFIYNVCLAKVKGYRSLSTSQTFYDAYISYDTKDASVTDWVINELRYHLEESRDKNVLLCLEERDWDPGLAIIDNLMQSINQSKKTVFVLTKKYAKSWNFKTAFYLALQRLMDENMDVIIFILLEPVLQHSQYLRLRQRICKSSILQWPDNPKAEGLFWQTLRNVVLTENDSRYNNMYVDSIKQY
Description: (§1) The ability of compounds to activate human TLR7 and/or TLR8 was assessed in a cellular reporter assay using HEK293 cells transiently transfected with a TLR7 or TLR8 expression vector and NFκB-luc reporter construct.
(§2) Briefly, HEK293 cells were grown in culture medium (DMEM supplemented with 10% FCS and 2 mM Glutamine). For transfection of cells in 15 cm dishes, cells were detached with Trypsin-EDTA, transfected with a mix of CMV-TLR7 or TLR8 plasmid (1700 ng), NFκB-luc plasmid (850 ng) and a transfection reagent and incubated for 48 h at 37° C. in a humidified 5% CO2 atmosphere. Transfected cells were then washed in PBS, detached with Trypsin-EDTA and resuspended in medium to a density of 1.25×10^5 cells/mL. Forty microliters of cells were then dispensed into each well in 384-well plates, where 200 nL of compound in 100% DMSO was already present. Following 6 hours incubation at 37° C., 5% CO2, the luciferase activity was determined by adding 15 μL of Steady Lite Plus substrate (Perkin Elmer) to each well and readout performed on a ViewLux ultraHTS microplate imager (Perkin Elmer). Dose response curves were generated from measurements performed in quadruplicates. Lowest effective concentrations (LEC) values, defined as the concentration that induces an effect which is at least two fold above the standard deviation of the assay, were determined for each compound.

human TLR7 = target: T2, human TLR7 (Homo sapiens, UniProt Q9NYK1); assay: TLR7 cellular reporter assay (HEK293, NFκB-luc); conditions: lowest effective concentration; HEK293 transiently transfected with TLR7 and NFκB-luc; 6 hours incubation
T2 construct: expressed in transfected cells; host or cells: HEK293
T2 sequence (Q9NYK1 27-1049): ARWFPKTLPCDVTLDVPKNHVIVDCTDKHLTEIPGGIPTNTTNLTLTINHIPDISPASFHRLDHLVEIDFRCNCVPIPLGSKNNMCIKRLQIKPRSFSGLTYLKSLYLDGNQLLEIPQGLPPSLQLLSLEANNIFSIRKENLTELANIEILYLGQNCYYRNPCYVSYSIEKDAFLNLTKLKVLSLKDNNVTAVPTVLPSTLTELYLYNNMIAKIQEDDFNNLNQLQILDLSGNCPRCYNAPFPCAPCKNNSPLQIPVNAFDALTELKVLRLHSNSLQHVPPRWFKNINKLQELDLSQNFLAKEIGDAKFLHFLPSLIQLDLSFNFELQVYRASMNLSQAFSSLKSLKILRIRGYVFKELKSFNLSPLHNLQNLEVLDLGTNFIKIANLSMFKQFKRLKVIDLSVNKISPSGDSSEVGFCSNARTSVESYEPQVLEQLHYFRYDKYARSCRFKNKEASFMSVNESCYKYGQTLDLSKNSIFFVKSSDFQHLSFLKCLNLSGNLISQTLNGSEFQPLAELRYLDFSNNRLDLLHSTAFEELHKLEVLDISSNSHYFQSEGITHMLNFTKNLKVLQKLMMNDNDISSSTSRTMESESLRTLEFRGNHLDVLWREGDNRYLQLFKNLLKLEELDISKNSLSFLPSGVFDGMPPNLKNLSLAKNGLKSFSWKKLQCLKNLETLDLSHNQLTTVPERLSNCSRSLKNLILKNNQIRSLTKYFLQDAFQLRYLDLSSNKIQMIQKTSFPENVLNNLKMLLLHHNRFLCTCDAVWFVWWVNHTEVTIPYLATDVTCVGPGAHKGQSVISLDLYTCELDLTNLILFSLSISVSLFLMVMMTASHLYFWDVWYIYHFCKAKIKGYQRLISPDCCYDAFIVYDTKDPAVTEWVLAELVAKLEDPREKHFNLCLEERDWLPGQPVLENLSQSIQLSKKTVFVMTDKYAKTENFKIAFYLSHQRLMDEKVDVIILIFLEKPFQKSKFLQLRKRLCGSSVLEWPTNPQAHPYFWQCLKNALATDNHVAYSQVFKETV
Description: as §1, §2

Compound | HEK-ISRE luc (LEC) [1] [µM] | Human TLR 8 (LEC) (human TLR8) [µM] | Human TLR 7 (LEC) (human TLR7) [µM]
CCCC[C@@H](CC[S+](C)[O-])Nc1nc(N)ncc1OC (some centres unmarked) [Compound 2] | 4.8 | 9.2 | 1.4
CCCC[C@@H](CCS(C)(=O)=O)Nc1nc(N)ncc1OC [Compound 1] | 0.65 | 1.7 | 2.0
CCCC[C@@H](CCSC)Nc1nc(N)ncc1OC [E] |  | 10 | 3.9
